According to ChEMBL document CHEMBL3044927, “Novel 4(3H)-quinazolinone analogs: synthesis and anticonvulsant activity” (Med Chem Res, 2013):
Active and inactive are the calls of the source. No cut-off for these calls is given here.

Assays:
Mus musculus [1] = test: Anticonvulsant activity in Swiss albino Mus musculus (mouse) assessed as protection against PTZ-induced seizure at 1.5 mmol/kg, ip administered 30 min prior to PTZ-challenge measured up to 30 min relative to control; format: functional
[2] = Toxicity against Swiss albino Mus musculus (mouse) assessed as mortality at 1.5 mmol/kg, ip; format: organism-based; conditions: in vivo, read-out: Activity
Mus musculus [3] = test: Anticonvulsant activity in Swiss albino Mus musculus (mouse) assessed as protection against picrotoxin-induced seizure at 1.5 mmol/kg, ip administered 30 min prior to picrotoxin-challenge measured up to 30 min relative to control; format: functional
Mus musculus [4] = test: Anticonvulsant activity in Swiss albino Mus musculus (mouse) assessed as protection against maximal electric shock-induced seizure at 1.5 mmol/kg, ip administered 30 min prior to maximal electric shock-challenge measured up to 30 min relative to control; format: functional
Mus musculus [5] = test: Anticonvulsant activity in Swiss albino Mus musculus (mouse) assessed as protection against bicuculline-induced seizure at 1.5 mmol/kg, ip administered 30 min prior to bicuculline-challenge measured up to 30 min relative to control; format: functional
Mus musculus [6] = test: Anticonvulsant activity in Swiss albino Mus musculus (mouse) assessed as protection against picrotoxin-induced seizure at 1.38 mmol/kg, ip administered 30 min prior to picrotoxin-challenge measured up to 30 min relative to control; format: functional
Mus musculus [7] = test: Anticonvulsant activity in Swiss albino Mus musculus (mouse) assessed as protection against maximal electric shock-induced seizure at 1.38 mmol/kg, ip administered 30 min prior to maximal electric shock-challenge measured up to 30 min relative to control; format: functional
Mus musculus [8] = test: Anticonvulsant activity in Swiss albino Mus musculus (mouse) assessed as protection against bicuculline-induced seizure at 1.38 mmol/kg, ip administered 30 min prior to bicuculline-challenge measured up to 30 min relative to control; format: functional
Mus musculus [9] = test: Anticonvulsant activity in Swiss albino Mus musculus (mouse) assessed as protection against PTZ-induced seizure at 1.38 mmol/kg, ip administered 30 min prior to PTZ-challenge measured up to 30 min relative to control; format: functional

Row | Structure (SMILES) | Activity (Mus musculus [1]) | other results
1 | CCOC(=O)CSc1nc2ccc(C)cc2c(=O)n1-c1ccccc1 | inactive | 
2 | O=C(Nc1ccc(I)cc1C(=O)O)c1cccs1 | inactive | 
3 | CCOC(=O)CSc1nc2ccc(C)cc2c(=O)n1Cc1ccccc1 | inactive | 
4 | O=c1c2cc([N+](=O)[O-])ccc2nc(S)n1Cc1ccccc1 | inactive | 
5 | NNC(=O)COc1nc(-c2cccs2)nc2ccc(I)cc12 | 30% | 
6 | O=C1c2c(Cl)c(Cl)c(Cl)c(Cl)c2C(=O)N1n1c(-c2cccs2)nc2ccc(I)cc2c1=O | inactive | 
7 | Cc1ccc2nc(SCC(=O)NN)n(Cc3ccccc3)c(=O)c2c1 | inactive | mortality [2]: 100%
8 | O=C(Nn1c(-c2cccs2)nc2ccc(I)cc2c1=O)c1ccccc1 | 100% | Activity (Mus musculus [3]): 80%; Activity (Mus musculus [4]): 0%; Activity (Mus musculus [5]): 100%
9 | Cc1ccc2nc(SCC(=O)NN3C(=O)c4ccccc4C3=O)n(Cc3ccccc3)c(=O)c2c1 | inactive | 
10 | Cc1ccc2nc(SCC(=O)NN3C(=O)c4cccc5cccc(c45)C3=O)n(Cc3ccccc3)c(=O)c2c1 | 70% | Activity (Mus musculus [3]): 80%; Activity (Mus musculus [4]): 30%; Activity (Mus musculus [5]): 100%
11 | O=c1c2cc([N+](=O)[O-])ccc2nc(S)n1-c1ccccc1 | 30% | 
12 | Cc1ccc2nc(S)n(-c3ccccc3)c(=O)c2c1 | 70% | Activity (Mus musculus [3]): 80%; Activity (Mus musculus [4]): 0%; Activity (Mus musculus [5]): 100%
13 | NNc1nc2ccc([N+](=O)[O-])cc2c(=O)n1-c1ccccc1 | 30% | 
14 | O=C(COc1nc(-c2cccs2)nc2ccc(I)cc12)NN1C(=O)c2c(Br)c(Br)c(Br)c(Br)c2C1=O | 30% | 
15 | CCOC(=O)CSc1nc2ccc([N+](=O)[O-])cc2c(=O)n1Cc1ccccc1 | inactive | 
16 | Cc1ccc2nc(SCC(=O)NN3C(=O)c4cccc5cccc(c45)C3=O)n(-c3ccccc3)c(=O)c2c1 | inactive | 
17 | CCOC(=O)CSc1nc2ccc([N+](=O)[O-])cc2c(=O)n1-c1ccccc1 | inactive | 
18 | CCCC(CCC)C(=O)[O-].[Na+] [VALPROATE SODIUM] |  | Activity (Mus musculus [6]): 100%; Activity (Mus musculus [7]): 100%; Activity (Mus musculus [8]): 100%; Activity (Mus musculus [9]): 100%
19 | O=c1[nH]c(-c2cccs2)nc2ccc(I)cc12 | inactive | 
